From the NIST ThermoML archive (doi:10.1016/j.jct.2007.11.009)

Experiments:
[1] = Liquid, Vibrating tube method
[2] = refractive index (Na D-line) (dimensionless); details: 298.15 K; 101.33 kPa; Liquid; Standard Abbe refractometry

c1ccccc1 [benzene]
mass density [kg/m3], [1]
Details	298.15 K	308.15 K	318.15 K	328.15 K
100 kPa	873.5	862.9	852.3	841.5
2130 kPa	875.1	864.7	854.2	843.6
4150 kPa	876.7	866.4	856.1	845.6
6180 kPa	878.4	868.2	857.9	847.5
8210 kPa	879.9	869.9	859.7	849.5
10230 kPa	881.5	871.6	861.5	851.3
11250 kPa	882.3	872.4	862.4	852.3
12260 kPa	883.1	873.2	863.2	853.2
14290 kPa	884.6	874.8	865	855
16310 kPa	886.1	876.4	866.6	856.8
18340 kPa	887.6	878	868.3	858.6
20370 kPa	889.1	879.5	869.9	860.3
22390 kPa	890.5	881.1	871.6	862
24420 kPa	892	882.6	873.2	863.7
26450 kPa	893.4	884	874.7	865.3
28470 kPa	894.7	885.5	876.2	866.9
29490 kPa	895.4	886.2	877	867.8
30500 kPa	896.1	886.9	877.8	868.6
32530 kPa	897.5	888.4	879.2	870.1
34550 kPa	898.8	889.7	880.7	871.7
36580 kPa	900.1	891.1	882.1	873.1
38600 kPa	901.4	892.5	883.6	874.7
39620 kPa	902	893.2	884.3	875.4

Details	refractive index
[2]	1.4979

CCCCCCCC [octane]
mass density [kg/m3], [1]
Details	298.15 K	308.15 K	318.15 K	328.15 K
100 kPa	698.7	690.8	682.8	674.5
2130 kPa	700.4	692.6	684.7	676.6
4150 kPa	702.2	694.4	686.7	678.7
6180 kPa	703.8	696.2	688.6	680.7
8210 kPa	705.4	698	690.4	682.6
10230 kPa	707	699.7	692.2	684.6
11250 kPa	707.8	700.5	693.1	685.5
12260 kPa	708.6	701.3	694	686.4
14290 kPa	710.1	703	695.7	688.3
16310 kPa	711.7	704.5	697.4	690.1
18340 kPa	713.1	706.1	699.1	691.8
20370 kPa	714.6	707.6	700.7	693.6
22390 kPa	715.9	709.1	702.3	695.2
24420 kPa	717.4	710.6	703.9	696.9
26450 kPa	718.8	712	705.4	698.5
28470 kPa	720.1	713.4	706.9	700
29490 kPa	720.8	714.1	707.6	700.8
30500 kPa	721.4	714.8	708.3	701.6
32530 kPa	722.7	716.2	709.7	703
34550 kPa	724	717.5	711.2	704.5
36580 kPa	725.3	718.8	712.5	706
38600 kPa	726.5	720.2	713.9	707.4
39620 kPa	727.1	720.8	714.6	708.1

Details	refractive index
[2]	1.395
